Where two headings read alike, the source gives them in different places.
Tested on: HIV-1 (RF) in MT-2 cells
Assay: HIV RNA assay: antiviral potency in HIV-1 (RF) infected MT-2 cells (reduction of HIV RNA level)
Type: cell-based
Description: Plasmid pDAB 72 containing both gag and pol sequences of BH10 (bp 113-1816) cloned into PTZ 19R was prepared according to Erickson-Viitanen et al. AIDS Research and Human Retroviruses 1989, 5, 577. The plasmid was linearized with Bam HI prior to the generation of in vitro RNA transcripts using the Riboprobe Gemini system II kit (Promega) with T7 RNA polymerase. Synthesized RNA was purified by treatment with RNase free DNAse (Promega), phenol-chloroform extraction, and ethanol precipitation. RNA transcripts were dissolved in water, and stored at -70° C. The concentration of RNA was determined from the A260.
Biotinylated capture probes were purified by HPLC after synthesis on an Applied Biosystems (Foster City, Calif.) DNA synthesizer by addition of biotin to the 5' terminal end of the oligonucleotide, using the biotin-phosphoramidite reagent of Cocuzza, Tet. Lett. 1989, 30, 6287. […]
MT-2 and MT-4 cells were maintained in RPMI 1640 supplemented with 5% fetal calf serum (FCS) for MT-2 cells or 10% FCS for MT-4 cells, 2 mM L-glutamine and 50 μg/mL gentamycin, all from Gibco. […] Infectious titers of HIV-1(RF) stocks were 1-3×10^7 PFU (plaque forming units)/mL as measured by plaque assay on MT-2 cells (see below). […]

| IC90 (Human immunodeficiency virus 1, MT2, ddC reference, dilutions of virus selected to give this IC90, read-out: IC90 (concentration of compound required to reduce the HIV RNA level by 90%)) [µg/mL] | IC90 (Human immunodeficiency virus 1, MT2, 72 h, 3 days culture at 37° C., read-out: IC90 (concentration of compound required to reduce the HIV RNA level by 90%)) [nM] | SMILES |
| --- | --- | --- |
| 0.2 |  | Nc1ccn([C@H]2CC[C@@H](CO)O2)c(=O)n1 [ddC, dideoxycytidine] |
|  | < 50 | Nc1cccc(CN2C(=O)N(Cc3ccc4[nH]ncc4c3)[C@H](Cc3ccccc3)[C@H](O)[C@@H](O)[C@H]2Cc2ccccc2)c1 [Example 1, (4R,5S,6S,7R)-hexahydro-1-[(indazol-5-yl)methyl]-5,6-dihydroxy-4,7-bis[phenylmethyl]-3-(3-aminophenyl)methyl-2H-1,3-diazapin-2-one] |

From patent US6313110A, “Substituted 2H-1,3-diazapin-2-one useful as an HIV protease inhibitor” (priority 2000, dated 2001)
